Results taken from patent publication US10370436B2, “Anti-pseudomonas Psl binding molecules and uses thereof” (priority 2011, dated 2019).

System: P. aeruginosa 6077 (O11-cytotoxic)
Experiment: P. aeruginosa corneal infection (keratitis) model
Type: in vivo, mice
Details: versus negative control-treated animals, 24 hours after infection
Description: FIG. 8 (A-G): Anti-Psl monoclonal antibodies Cam-003 and WapR-004 are active in a P. aeruginosa keratitis model and thermal injury model. Mice were treated with a control IgG1 antibody or Cam-003 at 45 mg/kg (A, B) or 15 mg/kg (C, D) or PBS or a control IgG1 antibody or Cam-003 at 45 mg/kg or WapR-004 at 45 mg/kg or 15 mg/kg or 5 mg/kg (F, G) 24 hours prior to infection with 6077 (O11-cytotoxic—2×10^6 CFU). Immediately before infection, three 1 mm scratches were made on the left cornea of each animal followed by topical application of P. aeruginosa in a 5 μl inoculum. 24 hours after infection, the corneal pathology scores were calculated followed by removal of the eye for determination of viable CFU. Differences in pathology scores and viable CFU were determined by the Mann-Whitney U-test. (A) P=0.0001, (B) P<0.0001, (C) P=0.0003, (D) P=0.0015. (F) and (G) Cam-003 (45 mg/kg) vs. WapR-004 (45 mg/kg): P=0.018; Cam-003 (45 mg/kg) vs. WapR-004 (15 mg/kg): P=0.0025; WapR-004 (45 mg/kg) vs. WapR-004 (15 mg/kg): P=0.1331; WapR-004 (5 mg/kg) vs. Ctrl: P<0.0001. Results are representative of five independent experiments. (E) Survival analysis from Cam-003 and R347 treated CF-1 mice in a P. aeruginosa thermal injury model after 6077 infection (2×10^5 CFU) (log-rank: R347 vs. Cam-003 15 mg/kg, P=0.0094; R347 vs. Cam-003 5 mg/kg, P=0.0017). […]

Cam-003: human IgG1 anti-Psl monoclonal antibody, VH SEQ ID NO: 1 and VL SEQ ID NO: 2
bacterial counts in total eye homogenates: reduced bacterial counts
corneal pathology (FIGS. 8A-D, F-G): significantly less pathology
